Data from US7745693B2, “Inhibitors of plant peptide deformylase for use as broad-spectrum herbicides and methods for identifying the same” (University of Kentucky Research Foundation, priority 2007, dated 2010).

Legend:
AtDEF2 = biological target: T1, AtDEF2 (Arabidopsis thaliana, UniProt Q9FUZ2); test: Continuous spectrophotometric peptide deformylase activity and inhibition assay (formyl-Met-Leu-p-nitroanilide, coupled with Aeromonas proteolytica aminopeptidase); format: biochemical
T1 construct: the entire putative protein and the ChloroP-predicted chloroplast-length protein; initiator Met from the NdeI site (N); made in house; host or cells: E. coli BL21(DE3)pLysS, pET23b, clone #4-D
T1 sequence (Q9FUZ2 57-273): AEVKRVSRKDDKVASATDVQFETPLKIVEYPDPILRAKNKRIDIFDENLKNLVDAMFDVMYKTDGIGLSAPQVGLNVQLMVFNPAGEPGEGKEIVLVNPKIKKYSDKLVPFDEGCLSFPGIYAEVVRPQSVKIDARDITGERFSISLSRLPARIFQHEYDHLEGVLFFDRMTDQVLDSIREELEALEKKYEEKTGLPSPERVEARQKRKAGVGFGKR
Protocol: Experiments were designed to detect deformylase activity from recombinant AtDEF2 using the assay as described by Wei and Pei, Analytical Biochemistry 250:29-34 (1997). Continuous spectrophotometric assays of peptide deformylase activity were carried out at a temperature of 20° C. Assays were performed in polystyrene or quartz cuvettes containing 50 mM Tris-HCl, pH 8.2, 1 mM ethylene diamine bis(β-aminoethyl ether-N,N′-tetraacetic acid ([…]), 5 mM MgCl2, 200 μM NiSO4 0-200 μM peptide substrate and 1.0 units of Aeromonas proteolytica aminopeptidase. […] The reactions were monitored continuously at 405 nm in a Shimadzu UV-201 PC scanning spectrophotometer, and the initial rates were calculated from the early part of the reaction progression curves (<60 s). Spectrophotometric detection and quantitation was performed of p-nitroaniline released from formyl-Met-Leu-p-nitroanilide substrate (BACHEM Cat. No. L2030; King of Prussia, Pa. 19406 USA) following sequential action of AtDEF2 and Aeromonas proteolytica aminopeptidase (Sigma Cat. No. A8200; St. Louis, Mo., 63118 USA).

[1] = test system: Pea plants (Pisum sativum L. cv. Laxton's Progress No. 9); test: Assay for in vivo herbicidal activity on pea plants; details: ten-day old pea plants
Protocol: Pea plants (Pisum sativum L. cv. Laxton's Progress No. 9) were sown in 46×62 cm flats of MetroMix 360 and grown for 10-12 days in a greenhouse (minimum night temperature of 30° C.) as described by Wang, P., Royer, M., and Houtz, R. L. Affinity purification of ribulose-1,5-bisphosphate carboxylase/oxygenase large subunit epsilon N-methyltransferase. Protein Expression and Purification 6:528-526 (1995). Ten-day old pea plants were treated with approximately 100-200 μl actinonin (final concentration. 2.5 mg/ml per plant in 0.1% Tween-20). Control plants were treated with 0.1% Tween-20. […] The changes were clearly visible within 48 hours after treatment with actinonin.

- inhibition of deformylase activity after preincubation (AtDEF2; 43.5 μg AtDEF2 preincubated 3 minutes with 3.2 μM actinonin, assay then initiated with substrate): Nearly complete inhibition
- inhibition of AtDEF2 activity (actinonin included in assay, no preincubation) (AtDEF2; within 60 seconds, FIG. 8, 20° C.): significantly inhibited
SMILES: CCCCC[C@H](CC(=O)NO)C(=O)N[C@H](C(=O)N1CCC[C@H]1CO)C(C)C [actinonin]
- time after treatment at which changes were clearly visible ([1]; 2.5 mg/ml actinonin in 0.1% Tween-20): ≤ 48 h
- observable alterations in plant growth ([1]; approximately 100-200 μl actinonin, 2.5 mg/ml per plant in 0.1% Tween-20, foliar application): stunting and yellowing of pea plants
